Results taken from patent EP4043466B1, “PRC2 INHIBITORS” (Mirati Therapeutics, Inc., priority 2018, dated 2019).

What was measured:
[1] = molecular target: purified human, His-tagged PRC2 complex (Homo sapiens, UniProt O75530+Q15910); experiment: Hot Spot HMT assay: inhibition of PRC2 enzymatic activity (transfer of tritiated methyl from SAM to core histone, filter binding); assay type: biochemical; settings: Inhibition of PRC2-mediated enzymatic activity; 10 nM PRC2 complex, 0.05 mg/ml core histone H3, 1 uM 3H-SAM, 1 hr at 30°C
Sequence of purified human, His-tagged PRC2 complex (Q15910 whole entry): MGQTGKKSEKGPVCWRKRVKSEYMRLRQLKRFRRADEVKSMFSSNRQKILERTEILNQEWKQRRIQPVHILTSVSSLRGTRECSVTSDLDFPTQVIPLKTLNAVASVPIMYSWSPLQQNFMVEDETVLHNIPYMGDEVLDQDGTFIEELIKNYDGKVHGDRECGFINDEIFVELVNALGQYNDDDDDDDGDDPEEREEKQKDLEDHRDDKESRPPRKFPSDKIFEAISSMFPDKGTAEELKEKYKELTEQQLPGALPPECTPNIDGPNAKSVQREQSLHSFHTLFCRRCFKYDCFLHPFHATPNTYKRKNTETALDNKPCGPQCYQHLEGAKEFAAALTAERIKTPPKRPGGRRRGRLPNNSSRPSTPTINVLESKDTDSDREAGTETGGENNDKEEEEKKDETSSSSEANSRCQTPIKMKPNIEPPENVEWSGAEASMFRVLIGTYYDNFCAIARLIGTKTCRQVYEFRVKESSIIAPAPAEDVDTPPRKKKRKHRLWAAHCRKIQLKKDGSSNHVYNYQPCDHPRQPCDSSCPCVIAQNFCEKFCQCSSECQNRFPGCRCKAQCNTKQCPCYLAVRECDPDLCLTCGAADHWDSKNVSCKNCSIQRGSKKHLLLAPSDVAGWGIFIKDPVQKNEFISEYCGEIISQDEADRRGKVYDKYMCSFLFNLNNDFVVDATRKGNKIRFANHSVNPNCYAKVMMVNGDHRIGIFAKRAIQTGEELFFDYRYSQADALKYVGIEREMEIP
Sequence of purified human, His-tagged PRC2 complex (O75530 whole entry): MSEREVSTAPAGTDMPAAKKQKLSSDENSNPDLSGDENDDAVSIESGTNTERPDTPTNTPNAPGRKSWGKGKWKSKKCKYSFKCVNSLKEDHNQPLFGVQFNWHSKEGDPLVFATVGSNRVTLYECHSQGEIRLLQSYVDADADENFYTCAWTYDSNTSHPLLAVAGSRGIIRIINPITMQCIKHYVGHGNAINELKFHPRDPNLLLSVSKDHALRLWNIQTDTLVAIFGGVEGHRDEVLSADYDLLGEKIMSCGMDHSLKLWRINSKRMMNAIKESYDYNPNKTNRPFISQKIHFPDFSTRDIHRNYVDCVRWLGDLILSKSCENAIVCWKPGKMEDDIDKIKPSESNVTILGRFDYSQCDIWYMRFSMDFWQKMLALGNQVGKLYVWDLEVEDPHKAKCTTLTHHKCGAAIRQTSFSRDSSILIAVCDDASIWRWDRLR
Sequence of purified human, His-tagged PRC2 complex (Q15022 whole entry partner): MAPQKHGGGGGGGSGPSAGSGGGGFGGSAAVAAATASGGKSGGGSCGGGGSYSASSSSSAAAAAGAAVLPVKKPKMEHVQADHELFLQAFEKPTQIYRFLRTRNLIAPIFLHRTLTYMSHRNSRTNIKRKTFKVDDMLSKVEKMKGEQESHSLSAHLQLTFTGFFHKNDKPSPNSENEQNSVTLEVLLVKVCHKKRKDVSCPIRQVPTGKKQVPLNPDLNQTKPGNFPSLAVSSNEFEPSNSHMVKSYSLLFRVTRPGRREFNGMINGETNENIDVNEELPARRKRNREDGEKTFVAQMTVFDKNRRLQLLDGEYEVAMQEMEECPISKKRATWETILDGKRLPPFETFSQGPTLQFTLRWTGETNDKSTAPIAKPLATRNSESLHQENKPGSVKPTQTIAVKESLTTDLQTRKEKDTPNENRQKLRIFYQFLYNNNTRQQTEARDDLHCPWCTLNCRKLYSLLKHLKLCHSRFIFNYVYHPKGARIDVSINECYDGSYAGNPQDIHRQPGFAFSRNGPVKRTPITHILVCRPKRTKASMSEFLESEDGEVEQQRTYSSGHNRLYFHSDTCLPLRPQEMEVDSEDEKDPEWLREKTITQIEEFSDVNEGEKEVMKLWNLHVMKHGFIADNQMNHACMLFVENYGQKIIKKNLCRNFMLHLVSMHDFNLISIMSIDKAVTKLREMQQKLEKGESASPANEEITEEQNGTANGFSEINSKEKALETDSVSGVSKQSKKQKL
Sequence of purified human, His-tagged PRC2 complex (Q6ZN18 whole entry partner): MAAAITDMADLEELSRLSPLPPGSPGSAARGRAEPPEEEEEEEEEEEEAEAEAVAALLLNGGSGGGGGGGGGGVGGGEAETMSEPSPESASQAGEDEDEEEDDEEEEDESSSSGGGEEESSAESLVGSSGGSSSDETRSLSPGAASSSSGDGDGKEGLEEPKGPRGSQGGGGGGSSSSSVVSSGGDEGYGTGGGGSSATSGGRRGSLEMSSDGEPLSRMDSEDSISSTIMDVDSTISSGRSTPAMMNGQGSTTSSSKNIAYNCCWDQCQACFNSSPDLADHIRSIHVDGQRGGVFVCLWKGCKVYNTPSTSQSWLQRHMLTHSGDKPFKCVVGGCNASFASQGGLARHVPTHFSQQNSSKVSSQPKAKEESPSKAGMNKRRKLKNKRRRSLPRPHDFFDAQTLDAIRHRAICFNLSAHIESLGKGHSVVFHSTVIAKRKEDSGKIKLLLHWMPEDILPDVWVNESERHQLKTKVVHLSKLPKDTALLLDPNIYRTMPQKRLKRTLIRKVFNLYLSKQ
Sequence of purified human, His-tagged PRC2 complex (Q09028 whole entry partner): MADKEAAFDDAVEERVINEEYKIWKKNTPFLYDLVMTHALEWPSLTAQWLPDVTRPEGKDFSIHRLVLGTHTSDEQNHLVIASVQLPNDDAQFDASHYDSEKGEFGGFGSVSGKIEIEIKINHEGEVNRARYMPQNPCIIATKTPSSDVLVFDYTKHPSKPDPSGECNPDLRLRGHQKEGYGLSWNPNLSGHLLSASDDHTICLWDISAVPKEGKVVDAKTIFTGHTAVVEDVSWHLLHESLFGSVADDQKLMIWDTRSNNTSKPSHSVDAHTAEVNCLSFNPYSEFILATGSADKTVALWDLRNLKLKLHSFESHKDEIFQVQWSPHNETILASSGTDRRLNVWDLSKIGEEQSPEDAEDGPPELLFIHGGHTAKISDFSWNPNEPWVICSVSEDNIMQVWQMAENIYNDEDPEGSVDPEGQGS
Outline: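 Five-subunit complex (His-EZH2, Flag-EED, His-SUZ12, His-AEBP2, His-RbAp48) at 10 nM with 0.05 mg/ml core histone H3, pH 8 Tris buffer, 1% DMSO; 20 min compound pre-incubation at 30°C. Started with 1 uM [3H]-SAM, 1 hr at 30°C; tritiated H3 counted by scintillation. Compounds diluted from 1.0 µM top concentration.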

[2] = tested on: PRC2-mediated histone H3 methylation; experiment: Tri-Methyl Histone H3 (Lys 27) Sandwich ELISA in Pfeiffer cells: inhibition of PRC2-mediated histone H3 methylation; assay type: cell-based, human; settings: Homo sapiens; Inhibition of EZH2-mediated histone H3 trimethylation; Pfeiffer cells (EZH2 A677G), 96 hours incubation
From the text: The Pfeiffer cell line was established from a […] from a patient having metastatic diffuse large B-cell lymphoma (DLBCL). This cell line expresses a mutant form of the EZH2 enzyme (A677G) that results in enhanced EZH2 activity leading to increased methylation of histone H3 Lys27. Increased trimethylation of histone H3 Lys27 is believed to be implicated in tumorgenesis and poor clinical prognosis in lymphomas (McCabe et al., (2012) Nature 492:108-112).
Inhibition of PRC2-mediated histone H3 methylation by compounds of Formula (I) was measured by ELISA using a Tri-Methyl Histone H3 (Lys 27) Sandwich ELISA Kit (Cell Signaling Tech #7866C) in accordance with the manufacturer's instructions. Briefly, Pfeiffer cells were cultured in RPMI medium supplemented with 10% fetal bovine serum and 1% penicillin and 1% streptomycin in 96 well culture plates at 37°C to a density of 8000 cells/90µl/well and the cells were harvested. A series of 3-fold serial dilutions of each test compound of Formula (I) were prepared in RPMI medium and added to the cells at final concentrations ranging from 1µM to 0.15 nM. The plates were incubated at 37°C for 96 hours.
After incubation, the cells were pelleted by centrifugation in a pre-cooled 4°C rotor at 1, 100 rpm for 10 min and the supernatant was removed by aspiration. The cell pellet was resuspended in 55µl of Lysis Buffer (0.4M HCl) and incubated on ice with periodic shaking for 30 minutes. The lysed cells were subjected to centrifugation at 4, 200 rpm for 10 min at 4°C and the supernatant containing acid-soluble proteins was collected and the remainder discarded. The acid-soluble proteins were brought to a neutral pH by the addition of 20 µl of Neutralization Buffer (1 M Sodium phosphate, dibasic (pH 12.5), 2.5 mM DTT and 1 mM PMSF) and the neutralized lysates were analyzed by ELISA.
A 65 µl aliquot of each cell lysate was added to a well of a microwell strip, the microwells were sealed using tape and incubated either at 37°C for two hours or at 4°C overnight. After incubation, the tape was removed at the microwells were washed four times using 200 µl of 1X Wash Buffer. To each washed microwell, a 100 µl aliquot of an antitrimethyl histone H3 Lys27 Detection Antibody solution was added and the microwells were incubated at 37°C for one hour. The Detection Antibody solution was removed by aspiration and the wells were washed four times each using 200 µl of 1X Wash Buffer.
A 100 µl aliquot of an HRP-linked secondary antibody was added to each well, the wells were sealed with tape and incubated at 37°C for 30 min. The HRP-linked secondary antibody solution was removed by aspiration and the wells were washed four times using 200 µl of 1X Wash Buffer. A 100 µl aliquot of a TMB substrate was added to each well, the wells were sealed with tape and incubated at 37°C for 10 min or 25°C for 30 min. The reaction was stopped by the addition of 100 µl aliquot of a STOP solution and the plate was shaken briefly. The degree of histone H3 trimethylation was determined using a spectrophotometric readout by measuring the absorbance at 450 nm and then calculating the amount of trimethylated histone H3. A = ≤100 nM; B = >100 nM - ≤500 nM; C = >500 nM and N.D. = not determined.

[3] = tested on: Karpas 422 cells; experiment: Karpas 422 cell viability, CTG (Cell Titre Glo) assay; assay type: cell-based, human; settings: Homo sapiens; Inhibition of proliferation of Karpas 422 cells (EZH2 Y641N); viability measured Day 4, Day 7 or Day 11, time point of the tabulated values not stated
Outline: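 Karpas 422 cells (EZH2 Y641N, DLBCL) plated at 1000 cells/well in RPMI with 20% FBS, exposed to compound 10µM down to 1.5nM in 3-fold steps at 37 °C. Viability by CellTiter-Glo on Days 4, 7 and 11; Day 11 plates re-fed with fresh medium and compound on Day 7. IC50 per time point.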

Row | SMILES | IC50 [1] | IC50 [2] | IC50 [3]
1 | N#Cc1cn2c(NCc3c(F)ccc4c3CCO4)ncc(-c3ccc(CN4CC(O)C4)cc3)c2n1 [Example 150, 5-(((5-fluoro-2,3-dihydrobenzofuran-4-yl)methyl)amino)-8-(4-((3-hydroxyazetidin-1-yl)methyl)phenyl)imidazo[1,2-c]pyrimidine-2-carbonitrile] | < 100 nM | ≤ 100 nM | –
2 | Cn1nc(C(=O)N2CCOCC2)cc1-c1cnc(NCc2c(F)ccc3c2CCO3)n2cc(C#N)nc12 [Example 209, 5-(((5-fluoro-2,3-dihydrobenzofuran-4-yl)methyl)amino)-8-(1-methyl-3-(morpholine-4-carbonyl)-1H-pyrazol-5-yl)imidazo[1,2-c]pyrimidine-2-carbonitrile] | – | ≤ 100 nM | ≤ 250 nM
3 | N#Cc1cn2c(NCc3c(F)ccc4c3CCO4)ncc(-c3ccc(CN4CC(F)(F)C4)cc3)c2n1 [Example 51, 8-(4-((3,3-difluoroazetidin-1-yl)methyl)phenyl)-5-(((5-fluoro-2,3-dihydrobenzofuran-4-yl)methyl)amino)imidazo[1,2-c]pyrimidine-2-carbonitrile] | < 100 nM | ≤ 100 nM | –
4 | Cc1cc(-c2cnc(NCc3c(F)ccc4c3CCO4)n3cc(C(=O)O)nc23)n(C)n1 [Example 1, 8-(1,3-dimethyl-1H-pyrazol-5-yl)-5-(((5-fluoro-2,3-dihydrobenzofuran-4-yl)methyl)amino)imidazo[1,2-c]pyrimidine-2-carboxylic acid] | – | > 500 nM | > 500 nM
5 | N#Cc1cn2c(NCc3c(F)ccc4c3CCO4)ncc(-c3ccc(CN4CC5CC5C4)cc3)c2n1 (stereo not shown) [Example 52, 8-(4-((3-azabicyclo[3.1.0]hexan-3-yl)methyl)phenyl)-5-(((5-fluoro-2,3-dihydrobenzofuran-4-yl)methyl)amino)imidazo[1,2-c]pyrimidine-2-carbonitrile] | < 100 nM | ≤ 100 nM | –
6 | Cc1ncccc1-c1cnc(NCc2c(F)ccc3c2CCO3)n2cc(C(=O)O)nc12 [Example 2, 5-(((5-fluoro-2,3-dihydrobenzofuran-4-yl)methyl)amino)-8-(2-methylpyridin-3-yl)imidazo[1,2-c]pyrimidine-2-carboxylic acid] | – | > 500 nM | > 500 nM
7 | Cc1nn(C[C@H](C)O)c(C)c1-c1cnc(NCc2c(F)ccc3c2CCO3)n2cc(C#N)nc12 [Example 65, (S)-5-(((5-fluoro-2,3-dihydrobenzofuran-4-yl)methyl)amino)-8-(1-(2-hydroxypropyl)-3,5-dimethyl-1H-pyrazol-4-yl)imidazo[1,2-c]pyrimidine-2-carbonitrile] | 100 to 500 nM | – | > 500 nM
8 | N#Cc1cn2c(NCc3c(F)ccc4c3CCO4)ncc(-c3ccc(CN4CCC(F)C4)cc3)c2n1 (stereo not shown) [Example 54, 5-(((5-fluoro-2,3-dihydrobenzofuran-4-yl)methyl)amino)-8-(4-((3-fluoropyrrolidin-1-yl)methyl)phenyl)imidazo[1,2-c]pyrimidine-2-carbonitrile] | < 100 nM | – | ≤ 250 nM
9 | CC(c1ccc(-c2cnc(NCc3c(F)ccc4c3CCO4)n3cc(C#N)nc23)cc1)N1CCCC1 (stereo not shown) [Example 90, 5-(((5-fluoro-2,3-dihydrobenzofuran-4-yl)methyl)amino)-8-(4-(1-(pyrrolidin-1-yl)ethyl)phenyl)imidazo[1,2-c]pyrimidine-2-carbonitrile] | < 100 nM | ≤ 100 nM | –

Results, then the molecule that gave them:

Row | IC50 [1] | IC50 [2] | IC50 [3] | SMILES
10 | 100 to 500 nM | 100 to 500 nM | – | Cc1ccc(C#N)cc1-c1cnc(NCc2c(F)ccc3c2CCO3)n2cc(C#N)nc12 [Example 177, 8-(5-cyano-2-methylphenyl)-5-(((5-fluoro-2,3-dihydrobenzofuran-4-yl)methyl)amino)imidazo[1,2-c]pyrimidine-2-carbonitrile]
11 | < 100 nM | 100 to 500 nM | – | N#Cc1cn2c(NCc3c(F)ccc4c3CCO4)ncc(-c3cnn4c3CCC4)c2n1 [Example 80, 8-(5,8-dihydro-4H-pyrrolo[1,2-b]pyrazol-3-yl)-5-(((5-fluoro-2,3-dihydrobenzofuran-4-yl)methyl)amino)imidazo[1,2-c]pyrimidine-2-carbonitrile]
12 | < 100 nM | ≤ 100 nM | – | Cn1nncc1-c1cnc(NCc2c(F)ccc3c2CCO3)n2cc(C#N)nc12 [Example 143, 5-(((5-fluoro-2,3-dihydrobenzofuran-4-yl)methyl)amino)-8-(1-methyl-1H-1,2,3-triazol-5-yl)imidazo[1,2-c]pyrimidine-2-carbonitrile]
13 | < 100 nM | ≤ 100 nM | – | Cn1nc(C(F)(F)F)cc1-c1cnc(NCc2c(F)ccc3c2CCO3)n2cc(C#N)nc12 [Example 111, 5-(((5-fluoro-2,3-dihydrobenzofuran-4-yl)methyl)amino)-8-(1-methyl-3-(trifluoromethyl)-1H-pyrazol-5-yl)imidazo[1,2-c]pyrimidine-2-carbonitrile]
14 | < 100 nM | ≤ 100 nM | – | CN(C)Cc1ccc(-c2cnc(NCc3c(F)ccc4c3CCO4)n3cc(C#N)nc23)cc1F [Example 63, 8-(4-((dimethylamino)methyl)-3-fluorophenyl)-5-(((5-fluoro-2,3-dihydrobenzofuran-4-yl)methyl)amino)imidazo[1,2-c]pyrimidine-2-carbonitrile]
15 | < 100 nM | 100 to 500 nM | – | N#Cc1cn2c(NCc3c(F)ccc4c3CCO4)ncc(-c3cccnc3CO)c2n1 [Example 148, 5-(((5-fluoro-2,3-dihydrobenzofuran-4-yl)methyl)amino)-8-(2-(hydroxymethyl)pyridin-3-yl)imidazo[1,2-c]pyrimidine-2-carbonitrile]
16 | < 100 nM | 100 to 500 nM | – | N#Cc1cn2c(NCc3c(F)ccc4c3CCO4)ncc(-c3ccccc3)c2n1 [Example 46, 5-(((5-fluoro-2,3-dihydrobenzofuran-4-yl)methyl)amino)-8-phenylimidazo[1,2-c]pyrimidine-2-carbonitrile]
17 | 100 to 500 nM | 100 to 500 nM | – | Cn1cc(-c2cnc(NCc3c(F)ccc4c3CCO4)n3cc(C#N)nc23)c(C#N)n1 [Example 224, 8-(3-cyano-1-methyl-1H-pyrazol-4-yl)-5-(((5-fluoro-2,3-dihydrobenzofuran-4-yl)methyl)amino)imidazo[1,2-c]pyrimidine-2-carbonitrile]
18 | < 100 nM | – | ≤ 250 nM | CS(=O)(=O)c1ccc(-c2cnc(NCc3c(F)ccc4c3CCO4)n3cc(C#N)nc23)cc1 [Example 73, 5-(((5-fluoro-2,3-dihydrobenzofuran-4-yl)methyl)amino)-8-(4-(methylsulfonyl)phenyl)imidazo[1,2-c]pyrimidine-2-carbonitrile]
19 | < 100 nM | ≤ 100 nM | – | COc1cc(-c2cnc(NCc3c(F)ccc4c3CCO4)n3cc(C#N)nc23)c(F)cn1 [Example 123, 5-(((5-fluoro-2,3-dihydrobenzofuran-4-yl)methyl)amino)-8-(5-fluoro-2-methoxypyridin-4-yl)imidazo[1,2-c]pyrimidine-2-carbonitrile]
20 | < 100 nM | – | ≤ 250 nM | Cc1ncc(-c2cnc(NCc3c(F)ccc4c3CCO4)n3cc(C#N)nc23)cc1N [Example 129, 8-(5-amino-6-methylpyridin-3-yl)-5-(((5-fluoro-2,3-dihydrobenzofuran-4-yl)methyl)amino)imidazo[1,2-c]pyrimidine-2-carbonitrile]
